The nature of the data set: gradient 5% acetonitrile 3 min, to 50% in 2 min, to 85% in 15 min, held 3 min, 100 µL/min. Conditions: column: Zorbax Extend-C18 2.1 x 50 mm; eluents: water / acetonitrile, 0.1% formic acid. The essentials:
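Using water and acetonitrile that each contained 0.1% formic acid, mixtures of ~100 pure standards were separated at 100 μL/min on a Zorbax Extend-C18 column (2.1 × 50 mm, 1.8 μm). The HPLC fed a quadrupole time-of-flight mass spectrometer working in positive and negative ionization mode, with dead and dwell volumes of 40 μL and 900 μL. Data were acquired over 3 months. Retention time was read from computationally picked adduct peaks after manual inspection of each.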
For the molecule `COc1ccccc1CNC(=O)C1CCN(c2cc(N3CCSCC3)ncn2)CC1`, the RP-LC retention time was 717 s. The figure for `Cc1ccc(-c2nnc(-c3ccc(Cl)c(S(=O)(=O)N(C)C)c3)o2)cc1` is 1040 s; for `CCC(=O)Nc1sc2c(c1C(=O)Nc1ccccc1)CCCC2` it is 704 s.

Consider `COc1ccccc1/C=C(\C#N)C(=O)O`, for which the RP-LC retention time was found to be 801 s. The figure for `CCOc1ccc(-c2csc(Cc3nc(-c4cccc(C)c4)no3)n2)cc1` is 1310 s. Then `COC1C(=O)N(c2cccc(F)c2)C12CCN(C(=O)Nc1ccccc1F)CC2` (stereo unspecified), with 890 s; and `CC1CCCN(S(=O)(=O)c2ccc(-n3cnc(C(=O)NC4CC4)c3)nc2)C1` (stereo unspecified), with 798 s. Then `Cc1ccc(-c2nnc(N3CCC(C(=O)NCCN4CCCCCC4)CC3)o2)cc1`, with 632 s; and `COc1ccc(C(=O)Nc2cccc(-c3csc(C)n3)c2)nn1`, with 586 s. `Cc1ccccc1-c1noc(C2CC(=O)N(c3ccc4c(c3)OCO4)C2)n1` (stereo unspecified) displayed an RP-LC retention time of 718 s.

As to `CC(C)CC(=O)N1CCC(c2noc(-c3ccncc3)n2)C1` (stereo unspecified), the RP-LC retention time turned out to be 719 s. The figure for `Cc1nc(Nc2ccc(Br)cn2)sc1C(=O)N1CCN(C)CC1` is 606 s; for `CC(C)NC(=O)C1CCCN(c2nc3ncn(CC(=O)Nc4cccc(C(C)C)c4)c(=O)c3s2)C1` (stereo unspecified) it is 791 s; for `CCc1cc(=O)n(CC(=O)Nc2cc(OC)ccc2OC)c(N2CCOCC2)n1` it is 967 s. Then `CCC[C@H](Nc1nc(-c2ccc(NC(=O)NCC)c(OC)c2)ncc1C)c1cccnc1`, with 666 s.

In turn, `Cc1ccc(-c2nnc(Cc3nc(-c4cccc(C(F)(F)F)c4)no3)o2)cc1` came in with an RP-LC retention time of 1160 s. The figure for `O=S(=O)(c1cccc(F)c1)N1CC(c2noc(C3CCCN3CC3CC3)n2)C1` (stereo unspecified) is 676 s; for `CC(=O)N1CC[C@]2(CO)CN(C(=O)c3ccsc3)C[C@@H]2C1` it is 565 s.

In turn, `O=C(Nc1ccc(C2(C(=O)N3CCN(c4ccc(F)cc4)CC3)CCC2)cc1)C1CC1` had an RP-LC retention time of 922 s. The figure for `O=C(C1CCOC1)N1CCCn2nc(-c3ccc(Cl)cc3)cc2C1` (stereo unspecified) is 767 s. Then `CCCC(=O)Nc1ccc(OCc2cc(C(=O)NC(C)CC)no2)cc1` (stereo unspecified), with 819 s. In the case of `O=C(Nc1cc(-c2cccs2)no1)C1CCC1`, the RP-LC retention time worked out at 862 s. The figure for `O=C(NC1CCCC1)c1ccn[nH]1` is 614 s; for `CCN(CC)C(=O)c1ccc(-c2nc3cc(NS(=O)(=O)c4cc(F)ccc4F)ccc3n2C)cc1` it is 704 s; for `COc1ccc(CCNC(=O)C2CCc3nc(N4CCC(C)CC4)ncc3C2)cc1OC` (stereo unspecified) it is 757 s. The figure for `COCCN1C(=O)CCc2cc(NS(=O)(=O)c3ccc(C)c(Cl)c3)ccc21` is 851 s; for `O=C(NCCOc1ccc(-c2ccccn2)nn1)c1cccs1` it is 586 s. The figure for `CCN1CCN(C(=O)C2CCN(c3nnc(-c4ccc(OC)cc4)o3)CC2)CC1` is 593 s; for `O=C(c1cccc(C(F)(F)F)c1)N1CCN(c2nc(CN3CCCCC3)cs2)CC1` it is 684 s; for `O=C(NCCc1csc(-c2cccs2)n1)C1CCN(S(=O)(=O)c2ccc(F)cc2)CC1` it is 882 s. On to `COc1ccc(C(CNC(=O)c2cc(=O)c3cc(C)cc(C)c3o2)N(C)C)cc1` (stereo unspecified), for which the RP-LC retention time stood at 675 s. The molecule `COc1cccc(-c2noc(N3CCN(c4ccccn4)CC3)n2)c1` came in with an RP-LC retention time of 678 s. Then `CCn1c(CN(c2ccc(F)cc2)S(C)(=O)=O)nnc1SCc1nnc(-c2ccccc2)o1`, with 760 s; and `O=C(Nc1ccc2c(c1)OCO2)Nc1ccc2c(c1)N(C(=O)c1ccccc1)CC2`, with 882 s. In turn, `CCc1ccc(CNC(=S)Nc2ccc3nc(N4CCN(C)CC4)cc(C)c3c2)cc1` showed an RP-LC retention time of 641 s. In turn, `COCCNC(=O)NC1CCN(C2=NS(=O)(=O)C(c3ccc(C)cc3)=C2C)CC1` displayed an RP-LC retention time of 1140 s. The molecule `Cc1oc2ncnc(N3CCCC(C(=O)N4CCC(C(N)=O)CC4)C3)c2c1C` (stereo unspecified) registered an RP-LC retention time of 620 s. Take `COc1ccc(Cn2c(=O)c3sccc3n(Cc3nc(-c4ccc(C)cc4)no3)c2=O)cc1`: the RP-LC retention time turned out to be 1060 s. As to `Cn1cc(-c2nc(C(=O)N3CCc4ccccc43)cs2)c2cccnc21`, the RP-LC retention time was determined as 1010 s. The figure for `O=C(c1cccs1)N1CCC(n2c(-c3ccoc3)nc3cccnc32)C1` (stereo unspecified) is 685 s. Then `CCOC(=O)C1CCN(C(=O)COc2ccc(NC(C)=O)cn2)CC1`, with 633 s. The figure for `CCc1ccc(NC(=O)N2CC(c3nc(C)no3)C3(CCOCC3)C2)cc1` (stereo unspecified) is 770 s; for `CC1(C(=O)N2CC(F)(F)C[C@H]2c2nc(-c3ccncc3)no2)CC1` it is 735 s; for `CCOc1ccc(N2C(=O)CC(c3ccc(OC)cc3)CC2=O)cc1` it is 942 s.

In turn, `COC(=O)CNC(=O)C1COc2ccc(NC(=O)C(C)C)cc2C1` (stereo unspecified) registered an RP-LC retention time of 658 s. The figure for `O=C([C@@H]1C[C@H](F)CN1C(=O)NCc1ccc(OC(F)(F)F)cc1)N1CCCCC1` is 809 s. The figure for `OC(c1ccccc1)(c1ccccc1)C1CN2CCC1CC2` (stereo unspecified) is 733 s; for `CC(C)CCNC(=O)c1cn(C)nc1S(=O)(=O)N1CCC(C)CC1` it is 996 s; for `Cn1cc2c3c(cccc31)CN(C(=O)Nc1ccccc1C(F)(F)F)CC2` it is 978 s. `Cc1ccc2c(c1)c1c3n2CCN(c2nc(-c4ccccc4)cs2)C3CCC1` (stereo unspecified) returned an RP-LC retention time of 901 s. The figure for `COCCn1cc(C(=O)NC2CCCCC2)c2nn(-c3ccccc3)c(=O)c-2c1` is 925 s; for `CCC(=O)N1CCc2c(sc3ncnc(NCc4ccccn4)c23)C1` it is 559 s. The figure for `CCC(C)NC(=O)NC1CCN(C2=NS(=O)(=O)C(c3ccc(C)c(C)c3)=C2C)CC1` (stereo unspecified) is 888 s; for `Nc1ncnc2sc3c(c12)CCCC3` it is 588 s. Then `CCn1ccc2sc(C)c(C(=O)N3CCCCCC3)c2c1=O`, with 760 s; and `Cc1ccc(-n2nc(N3CCCN(S(=O)(=O)c4ccccc4)CC3)ccc2=O)cc1C`, with 947 s. `CCCNC(=O)CCc1nc2ccccc2n(CC(=O)NCc2ccc(C)cc2)c1=O` showed an RP-LC retention time of 786 s. The figure for `CCCN1C(=O)CN(S(=O)(=O)c2ccccc2)CC1(C)C(=O)NCc1ccc(C)cc1` (stereo unspecified) is 898 s; for `COCCCN1CN=C(Nc2nc(C)c3ccccc3n2)NC1` it is 626 s; for `N#Cc1ccc(NC(=O)C(=O)c2ccc[nH]2)cc1` it is 801 s. Then `CC(C)CNC(=O)Nc1ccc2c(c1)CCN2S(C)(=O)=O`, with 733 s. As to `O=C(Cc1cccc(F)c1)N1CCC(Nc2ncnc3c2CCC3)C1` (stereo unspecified), the RP-LC retention time is 617 s. `COC(=O)c1[nH]c(C)c(C(=O)C(C)N(CC2CCCCC2)C(=O)c2ccc(OC)cc2)c1C` (stereo unspecified) yielded an RP-LC retention time of 708 s. `COc1ccc(OC)c(NC(=O)N2CCN(c3nc4ccccc4nc3C(F)(F)F)CC2)c1`: the RP-LC retention time came to 1070 s. `CCc1ccc(CN2C[C@@H]3C(=O)N(CCOC)C(=O)[C@@H]3C2)cc1` had an RP-LC retention time of 631 s.

Take `O=C([C@@H]1C[C@H](Oc2ccccc2)CN1C(=O)CCC1CCCC1)N1CCCC1`: the RP-LC retention time is 922 s. The figure for `N#Cc1c(N)nc(SCC(=O)c2ccc(Br)cc2)c(C#N)c1-c1ccccc1` is 997 s; for `CSc1ncc(C(=O)N2CCN(c3ccccn3)CC2)c(-c2ccccc2)n1` it is 837 s; for `O=C(Cn1c(=O)c2cccn2c2ccccc21)NCCCN1CCCC1` it is 593 s. Then `Cn1c(=O)c(N2CCN(C(=O)c3cccs3)CC2)nc2cccnc21`, with 793 s; and `CCCn1ccc2sc(C)c(C(=O)NC3CCCCC3)c2c1=O`, with 884 s; and `Cc1nc(-c2ccccc2F)sc1C(=O)N1CCCC1`, with 880 s. As to `CCOC(=O)c1cnc2nc(C)ccc2c1Nc1ccc2c(c1)OCO2`, the RP-LC retention time amounted to 680 s. Then `COC(=O)c1ccccc1NC(=O)NCCc1c(C)nn(C)c1C`, with 629 s.

For the molecule `COCc1nc2cccnc2n1C1CCN(C(=O)Nc2cc(Cl)c(OC)cc2OC)CC1`, the RP-LC retention time worked out at 723 s. Consider `CCCn1c(-c2cccc(C(=O)NCc3cccc(Br)c3)c2)nc2cccnc21`, for which the RP-LC retention time was 894 s. The figure for `CN(C)c1ccc(CNC(=O)C2CCN(c3cc(N4CCSCC4)ncn3)CC2)cc1` is 579 s; for `CCOc1ccc(C(C)NC(=O)c2cn3nc(OCC)ccc3n2)cc1` (stereo unspecified) it is 935 s. Then `Cn1c(=O)c2c(-c3cccc(Br)c3)n(Cc3ccco3)cc2n(C)c1=O`, with 971 s; and `CC(C)CCN1CCC(N2CCN(C(=O)CC(C)C)CC2)C1=O` (stereo unspecified), with 579 s; and `Cc1csc(-c2cc(S(=O)(=O)N3CCCCC3)c(C)n2C)n1`, with 1040 s.

The values are drawn from the METLIN SMRT retention time set (Domingo-Almenara et al. 2019).
